Like-named read-outs stand apart in the source and are kept apart here.
Columns and labels:
[1] = tested on: cultured cells of Taxus baccata LINN; assay: Growth rate and taxane yield, 21-day shake culture of Taxus baccata cells with heavy metal compound, amine, antiethylene agent or Ethrel added; assay type: cell-based
[2] = tested on: cultured cells of Taxus baccata LINN; conditions: 3 mM in fresh medium, continuous culture
Method: The amount of the taxol contained in the cells and the medium were measured in the same manner as that used in Example 1.

[3] = tested on: cultured cells of Taxus baccata LINN; conditions: 2 mM in medium
Method: The procedure of Example 78 was carried out except that the nutrition source was not added midway.

[4] = 2×10^−4 M added 5 times at 4 days' intervals from day 0, total 10^−3 M
[5] = 10^−1 M added at start, 21 days
[6] = 10^−2 M added at start, 21 days
[7] = 10^−3 M added at start, 21 days
[8] = 10^−3 M added on 7th day, 14 more days
[9] = 10^−3 M added on 14th day, 7 more days
[10] = 10^−3 M added on 18th day, 3 more days
[11] = 10^−3 M at start + methyl jasmonate 10^−4 M on 14th day
[12] = 10^−3 M at start + methyl jasmonate 10^−4 M on 14th day, oxygen 10% in the gas phase
[13] = 10^−3 M at start, oxygen 10% in the gas phase
[14] = 10^−4 M added at start, 21 days
[15] = 10^−5 M added at start, 21 days
[16] = 10^−6 M added at start, 21 days
[17] = 10^−7 M added at start, 21 days
[18] = 10^−8 M added at start, 21 days
[19] = 10^−9 M added at start, 21 days
[20] = nutrition source added continuously day 2-14, 21 days
[21] = nutrition source not added midway, 21 days

## O=S([O-])([O-])=S.[Ag+].[Ag+] [silver thiosulfate, [Ag(S2O3)2]^3−]
[1]; 1 M added at start, 21 days
  growth rate: 1.2 times
  total yield of taxane: 0.64 mg/L
  yield of baccatin III: 0.08 mg/L
  yield of cephalomannine: 0.36 mg/L
  yield of taxol: 0.20 mg/L
[1]; [4]
  growth rate: 2.4 times
  total yield of taxane: 32.36 mg/L
  yield of baccatin III: 4.15 mg/L
  yield of cephalomannine: 7.27 mg/L
  yield of taxol: 20.94 mg/L
[1]; [5]
  growth rate: 1.9 times
  total yield of taxane: 3.78 mg/L
  yield of baccatin III: 0.26 mg/L
  yield of cephalomannine: 2.15 mg/L
  yield of taxol: 1.37 mg/L
[1]; [6]
  growth rate: 2.3 times
  total yield of taxane: 12.02 mg/L
  yield of baccatin III: 0.72 mg/L
  yield of cephalomannine: 5.50 mg/L
  yield of taxol: 5.80 mg/L
[1]; [7]
  growth rate: 2.7 times
  total yield of taxane: 58.99 mg/L
  yield of baccatin III: 27.90 mg/L
  yield of cephalomannine: 5.96 mg/L
  yield of taxol: 25.13 mg/L
[1]; [8]
  growth rate: 2.2 times
  total yield of taxane: 27.21 mg/L
  yield of baccatin III: 11.71 mg/L
  yield of cephalomannine: 4.86 mg/L
  yield of taxol: 10.64 mg/L
[1]; [9]
  growth rate: 2.5 times
  total yield of taxane: 10.59 mg/L
  yield of baccatin III: 2.29 mg/L
  yield of cephalomannine: 3.83 mg/L
  yield of taxol: 4.47 mg/L
[1]; [10]
  growth rate: 2.9 times
  total yield of taxane: 3.27 mg/L
  yield of baccatin III: 0.28 mg/L
  yield of cephalomannine: 1.44 mg/L
  yield of taxol: 1.55 mg/L
[1]; [11]
  growth rate: 2.7 times
  total yield of taxane: 71.32 mg/L
  yield of baccatin III: 25.14 mg/L
  yield of cephalomannine: 12.57 mg/L
  yield of taxol: 33.61 mg/L
[1]; [12]
  growth rate: 2.7 times
  total yield of taxane: 74.07 mg/L
  yield of baccatin III: 27.00 mg/L
  yield of cephalomannine: 12.34 mg/L
  yield of taxol: 34.73 mg/L
[1]; [13]
  growth rate: 2.7 times
  total yield of taxane: 59.34 mg/L
  yield of baccatin III: 22.81 mg/L
  yield of cephalomannine: 9.08 mg/L
  yield of taxol: 27.45 mg/L
[1]; [14]
  growth rate: 2.7 times
  total yield of taxane: 27.26 mg/L
  yield of baccatin III: 7.62 mg/L
  yield of cephalomannine: 5.11 mg/L
  yield of taxol: 14.53 mg/L
[1]; [15]
  growth rate: 2.7 times
  total yield of taxane: 13.18 mg/L
  yield of baccatin III: 1.13 mg/L
  yield of cephalomannine: 4.10 mg/L
  yield of taxol: 7.95 mg/L
[1]; [16]
  growth rate: 2.6 times
  total yield of taxane: 5.72 mg/L
  yield of baccatin III: 1.06 mg/L
  yield of cephalomannine: 2.86 mg/L
  yield of taxol: 1.80 mg/L
[1]; [17]
  growth rate: 2.7 times
  total yield of taxane: 4.38 mg/L
  yield of baccatin III: 0.34 mg/L
  yield of cephalomannine: 2.47 mg/L
  yield of taxol: 1.57 mg/L
[1]; [18]
  growth rate: 2.8 times
  total yield of taxane: 2.02 mg/L
  yield of baccatin III: 0.29 mg/L
  yield of cephalomannine: 0.97 mg/L
  yield of taxol: 0.76 mg/L
[1]; [19]
  growth rate: 2.7 times
  total yield of taxane: 1.09 mg/L
  yield of baccatin III: 0.20 mg/L
  yield of cephalomannine: 0.56 mg/L
  yield of taxol: 0.33 mg/L
[2]; stationary state
  productivity of taxol: 8.8 mg/L/day
[2]; stationary state of 60 days
  taxol produced: 525 mg
[3]; [20]
  yield of cells: 38 g dried weight/l
  yield of taxol from cells: 31 mg/L
  yield of taxol from medium: 89 mg/L
  yield of taxol total: 125 mg/L
[3]; [21]
  yield of cells: 22 g dried weight/l
  yield of taxol from cells: 33 mg/L
  yield of taxol from medium: 27 mg/L
  yield of taxol total: 60 mg/L
